Test results from US4877893A, “Process for the preparation of 2-(O-alkyl)-2-thio-1,3,2-oxathiophospholanes” (priority 1987, dated 1989).

Experiments:
Assay in all cases: Fungicidal effect on infected agar nutrient media, colony diameter
Assay type in all cases: cell-based
Sclerotinia sclerotinia = settings: 3rd day after treatment, untreated control 41.7
Experimental: Agar nutrient media (Diameter 70 MM, thickness 10 mm) infected by Sclerotonia sclerotinia suspension are treated with 20 EC formulations prepared according to Example 27 and comprising 1, 10, 100 and 1000 ppm, respectively of the active ingredient of the Formula I. The fungicidal effect of the compositions is evaluated on the 3rd day after treatment by measuring the diameter of the Fungi colonies.

Penicillium cyclopium = settings: 7th day after treatment, untreated 26.5
In short: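 Agar media (70 mm diameter, 10 mm thick) infected with Penicillium cyclopium were treated with EC formulations at 1, 10, 100 and 1000 ppm active ingredient. Fungal colony diameter was measured on day 7 after treatment.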

Alternaria tenuis = settings: 5th day after treatment, untreated control 36.8
In short: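 Agar media (70 mm diameter, 10 mm thick) infected with Alternaria tenuis, treated with EC formulations at 1, 10, 100 and 1000 ppm active ingredient. Fungicidal effect read on day 5 after treatment as fungal colony diameter.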

Structure (SMILES) | Diameter of colony (mm) (Sclerotinia sclerotinia; 1 ppm) | Diameter of colony (mm) (Sclerotinia sclerotinia; 10 ppm) | Diameter of colony (mm) (Sclerotinia sclerotinia; 100 ppm) | Diameter of colony (mm) (Sclerotinia sclerotinia; 1000 ppm) | Diameter of colony (mm) (Penicillium cyclopium; 1 ppm) | Diameter of colony (mm) (Penicillium cyclopium; 10 ppm) | Diameter of colony (mm) (Penicillium cyclopium; 100 ppm) | Diameter of colony (mm) (Penicillium cyclopium; 1000 ppm) | Diameter of colony (mm) (Alternaria tenuis; 1 ppm) | Diameter of colony (mm) (Alternaria tenuis; 10 ppm) | Diameter of colony (mm) (Alternaria tenuis; 100 ppm) | Diameter of colony (mm) (Alternaria tenuis; 1000 ppm)
S=P1(OCCBr)OCCS1 (stereo not drawn) [Compound 2, 2-(O-2'-bromoethyl)-2-thio-1,3,2-oxathiophospholane] | 32.9 | 29.3 | 3.1 | 0 | 24.6 | 19.0 | 8.4 | 0 | 30.9 | 26.1 | 5.3 | 0
CC(C)C(C)OP1(=S)OC(C)C(C)S1 (stereo not drawn) [Compound 54, 2-(0-1',2'-dimethyl-n-propyl)-2-thio-4,5-dimethyl1,3,2-oxathiophospholane] | 34.9 | 29.0 | 4.1 | 0 | 25.2 | 18.8 | 7.9 | 0 | 34.7 | 24.6 | 7.2 | 0
CC1CSP(=S)(OCCCl)O1 (stereo not drawn) [Compound 4, 2-(0-2'-chloroethyl)-2-thio-5-methyl-1,3,2-oxathiophospholane] | 34.6 | 27.6 | 0 | 0 | 24.1 | 19.4 | 9.0 | 0 | 32.6 | 23.7 | 6.5 | 0
CC1OP(=S)(OCCCl)SC1C (stereo not drawn) [Compound 16, 2-(0-2'-chloroethyl)-2-thio-4,5-dimethyl-1,3,2-oxathiophospholane] | 39.4 | 27.6 | 1.7 | 0 | 23.2 | 18.1 | 6.6 | 0 | 34.4 | 22.0 | 6.3 | 0
CCCCOP1(=S)OC(C)C(C)S1 (stereo not drawn) [Compound 63, 2-(0-n-butyl)-2-thio-4,5-dimethyl-1,3,2-oxathiophospholane] | 34.2 | 29.9 | 3.1 | 0 | 24.8 | 18.5 | 8.5 | 0 | 35.0 | 24.2 | 6.7 | 0
CC(I)C(C)OP1(=S)OCCS1 (stereo not drawn) [Compound 30] | 34.8 | 30.0 | 0 | 0 | 21.2 | 20.0 | 7.2 | 0 | 30.1 | 26.7 | 7.2 | 0
CCCCOP1(=S)OCCS1 (stereo not drawn) [Compound 58] | 36.2 | 29.1 | 1.9 | 0 | 21.9 | 16.1 | 8.4 | 0 | 32.7 | 23.9 | 7.5 | 0
CCCOP1(=S)OCC(C)S1 (stereo not drawn) [Compound 48, 2-(0-n-propyl)-2-thio-4-methyl-1,3,2-oxathiophospholane] | 35.8 | 29.1 | 2.8 | 0 | 24.2 | 19.2 | 8.5 | 0 | 36.1 | 24.6 | 6.3 | 0
CC(CI)OP1(=S)OCCS1 (stereo not drawn) [Compound 12] | 35.9 | 27.4 | 3.7 | 0 | 25.8 | 16.1 | 4.7 | 0 | 34.5 | 22.0 | 4.8 | 0
CC(CI)OP1(=S)OC(C)C(C)S1 (stereo not drawn) [Compound 36] | 37.2 | 26.9 | 0 | 0 | 23.2 | 16.8 | 7.2 | 0 | 32.5 | 20.7 | 4.3 | 0
CC(CI)OP1(=S)OC(C)CS1 (stereo not drawn) [Compound 21, 2-(0-1'-methyl-2'-iodoethyl)-2-thio-5-methyl-1,3,2-oxathiophospholane] | 33.8 | 25.8 | 2.50 | 0 | 23.7 | 20.0 | 6.9 | 0 | 30.9 | 24.2 | 7.2 | 0
CC1CSP(=S)(OCCBr)O1 (stereo not drawn) [Compound 5] | 35.4 | 29.2 | 1.7 | 0 | 20.1 | 19.5 | 7.8 | 0 | 34.9 | 22.3 | 7.9 | 0
CC(CBr)OP1(=S)OCCS1 (stereo not drawn) [Compound 11] | 34.6 | 30.6 | 2.8 | 0 | 24.1 | 17.5 | 8.3 | 0 | 35.9 | 24.1 | 4.6 | 0
CCCCC(C)OP1(=S)OC(C)C(C)S1 (stereo not drawn) [Compound 65] | 35.8 | 30.1 | 3.7 | 0 | 24.6 | 19.1 | 7.5 | 0 | 33.8 | 25.3 | 6.6 | 0
CCCC(C)OP1(=S)OC(C)C(C)S1 (stereo not drawn) [Compound 66] | 34.8 | 28.8 | 4.0 | 0 | 25.0 | 18.6 | 7.5 | 0 | 34.5 | 24.4 | 7.0 | 0
CC1OP(=S)(OCCBr)SC1C (stereo not drawn) [Compound 17] | 40.1 | 30.2 | 1.0 | 0 | 24.9 | 14.2 | 8.9 | 0 | 33.2 | 23.9 | 5.6 | 0
